Assay results published in patent US20240124417A1, “COMPOUNDS USEFUL AS IMMUNOMODULATORS” (Bristol-Myers Squibb Company, priority 2019, published 2024).

Target: T1, PD-1/PD-L1 (Homo sapiens, UniProt Q9NZQ7)
T1 construct: TVMV protease site linker (C); made in house; host or cells: HEK293T cells
Assay: PD-1/PD-L1 Homogenous Time-Resolved Fluorescence (HTRF) binding assay
Settings: PD-L1-His 10 nM, PD-1-Ig 20 nM
Description: The ability of the compounds of the invention to bind to PD-L1 was investigated using a PD-1/PD-L1 Homogenous Time-Resolved Fluorescence (HTRF) binding assay.
Homogenous Time-Resolved Fluorescence (HTRF) binding assay.
The interaction of PD-1 and PD-L1 can be assessed using soluble, purified preparations of the extracellular domains of the two proteins. The PD-1 and PD-L1 protein extracellular domains were expressed as fusion proteins with detection tags, for PD-1, the tag was the Fc portion of Immunoglobulin (PD-1-Ig) and for PD-L1 it was the 6 histidine motif (PD-L1-His). All binding studies were performed in an HTRF assay buffer consisting of dPBS supplemented with 0.1% […] bovine serum albumin and 0.05% (v/v) Tween-20. For the h/PD-L1-His binding assay, inhibitors were pre-incubated with PD-L1-His (10 nM final) for 15 m in 4 μl of assay buffer, followed by addition of PD-1-Ig (20 nM final) in 1 μl of assay buffer and further incubation for 15 m. HTRF detection was achieved using europium crypate-labeled anti-Ig (1 nM final) and allophycocyanin (APC) labeled anti-His (20 nM final). Antibodies were diluted in HTRF detection buffer and 5 μl was dispensed on top of the binding reaction. […] Additional binding assays were established between the human proteins PD-1-Ig/PD-L2-His (20 & 5 nM, respectively) and CD80-His/PD-L1-Ig (100 & 10 nM, respectively). […]

T1 sequence (Q9NZQ7 18-239): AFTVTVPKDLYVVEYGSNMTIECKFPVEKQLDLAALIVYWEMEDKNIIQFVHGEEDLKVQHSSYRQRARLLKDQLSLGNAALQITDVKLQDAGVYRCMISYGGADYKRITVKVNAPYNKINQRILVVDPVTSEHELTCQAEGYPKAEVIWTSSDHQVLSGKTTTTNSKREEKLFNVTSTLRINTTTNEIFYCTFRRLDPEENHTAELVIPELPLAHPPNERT

SMILES	IC50
CC(=O)NC1CCN(CCCOc2cccc(-c3cccc(COc4cc(OCc5cncc(C#N)c5)c(CNC(C)c5nnn[nH]5)cc4Cl)c3C)c2C)CC1 (stereo not shown) [Example 1043, N-(1-(3-((3′-((4-(((1-(1H-Tetrazol-5-yl)ethyl)amino)methyl)-2-chloro-5-((5-cyanopyridin-3-yl)methoxy)phenoxy)methyl)-2,2′-dimethyl-[1,1′-biphenyl]-3-yl)oxy)propyl)piperidin-4-yl)acetamide]	3.1 nM
CC(=O)NC1CCN(CCCOc2cccc(-c3cccc(COc4cc(OCc5cncc(C#N)c5)c(CN5CCCCC5c5ncc[nH]5)cc4Cl)c3C)c2C)CC1 (stereo not shown) [Example 1045, N-(1-(3-((3′-((4-((2-(1H-Imidazol-2-yl)piperidin-1-yl)methyl)-2-chloro-5-((5-cyano-pyridin-3-yl)methoxy)phenoxy)methyl)-2,2′-dimethyl-[1,1′-biphenyl]-3-yl)oxy)propyl)-piperidin-4-yl)acetamide]	3.8 nM
CC(=O)NC1CCN(CCCOc2cccc(-c3cccc(COc4cc(OCc5cncc(C#N)c5)c(CNCc5nnn[nH]5)cc4Cl)c3C)c2C)CC1 [Example 1046, N-(1-(3-((3′-((4-((((1H-Tetrazol-5-yl)methyl)amino)methyl)-2-chloro-5-((5-cyanopyridin-3-yl)methoxy)phenoxy)methyl)-2,2′-dimethyl-[1,1′-biphenyl]-3-yl)oxy)propyl)piperidin-4-yl)acetamide]	1.9 nM
CC(=O)NC1CCN(CCCOc2cccc(-c3cccc(COc4cc(OCc5cncc(C#N)c5)c(CN(C)CC(C)c5nn[nH]n5)cc4Cl)c3C)c2C)CC1 (stereo not shown) [Example 1047, N-(1-(3-((3′-((4-(((2-(2H-Tetrazol-5-yl)propyl)(methyl)amino)methyl)-2-chloro-5-((5-cyanopyridin-3-yl)methoxy)phenoxy)methyl)-2,2′-dimethyl-[1,1′-biphenyl]-3-yl)oxy)-propyl)piperidin-4-yl)acetamide]	2.4 nM
CC(=O)NC1CCN(CCCOc2cccc(-c3cccc(COc4cc(OCc5cncc(C#N)c5)c(CNCCc5nnnn5C)cc4Cl)c3C)c2C)CC1 [Example 1049, N-(1-(3-((3′-((2-Chloro-5-((5-cyanopyridin-3-yl)methoxy)-4-(((2-(1-methyl-1H-tetrazol-5-yl)ethyl)amino)methyl)phenoxy)methyl)-2,2′-dimethyl-[1,1′-biphenyl]-3-yl)oxy)-propyl)piperidin-4-yl)acetamide]	2.5 nM
CC(=O)NC1CCN(CCCOc2cccc(-c3cccc(COc4cc(OCc5cncc(C#N)c5)c(CN5CCCC5c5nnn[nH]5)cc4Cl)c3C)c2C)CC1 (stereo not shown) [Example 1051, N-(1-(3-((3′-((4-((2-(1H-Tetrazol-5-yl)pyrrolidin-1-yl)methyl)-2-chloro-5-((5-cyano-pyridin-3-yl)methoxy)phenoxy)methyl)-2,2′-dimethyl-[1,1′-biphenyl]-3-yl)oxy)propyl)-piperidin-4-yl)acetamide]	2.1 nM
CC(=O)NC1CCN(CCCOc2cccc(-c3cccc(COc4cc(OCc5cncc(C#N)c5)c(CN5CCC(c6cnn(C)c6)C5)cc4Cl)c3C)c2C)CC1 (stereo not shown) [Example 1052, N-(1-(3-((3′-((2-Chloro-5-((5-cyanopyridin-3-yl)methoxy)-4-((3-(1-methyl-1H-pyrazol-4-yl)pyrrolidin-1-yl)methyl)phenoxy)methyl)-2,2′-dimethyl-[1,1′-biphenyl]-3-yl)oxy)-propyl)piperidin-4-yl)acetamide]	3.4 nM
CC(=O)NC1CCN(CCCOc2cccc(-c3cccc(COc4cc(OCc5cncc(C#N)c5)c(CN5CCCCC5c5cc[nH]n5)cc4Cl)c3C)c2C)CC1 (stereo not shown) [Example 1053, N-(1-(3-((3′-((4-((2-(1H-Pyrazol-3-yl)piperidin-1-yl)methyl)-2-chloro-5-((5-cyano-pyridin-3-yl)methoxy)phenoxy)methyl)-2,2′-dimethyl-[1,1′-biphenyl]-3-yl)oxy)propyl)-piperidin-4-yl)acetamide]	7.6 nM
CC(=O)NC1CCN(CCCOc2cccc(-c3cccc(COc4cc(OCc5cncc(C#N)c5)c(CN5CCCCC5c5cnn(C)c5)cc4Cl)c3C)c2C)CC1 (stereo not shown) [Example 1054, N-(1-(3-((3′-((2-Chloro-5-((5-cyanopyridin-3-yl)methoxy)-4-((2-(1-methyl-1H-pyrazol-4-yl)piperidin-1-yl)methyl)phenoxy)methyl)-2,2′-dimethyl-[1,1′-biphenyl]-3-yl)oxy)-propyl)piperidin-4-yl)acetamide]	3 nM
CC(=O)NC1CCN(CCCOc2cccc(-c3cccc(COc4cc(OCc5cncc(C#N)c5)c(CN5CCC(c6nnn[nH]6)C5)cc4Cl)c3C)c2Cl)CC1 (stereo not shown) [Example 1058, N-(1-(3-((3′-((4-((3-(1H-Tetrazol-5-yl)pyrrolidin-1-yl)methyl)-2-chloro-5-((5-cyano-pyridin-3-yl)methoxy)phenoxy)methyl)-2-chloro-2′-methyl-[1,1′-biphenyl]-3-yl)oxy)-propyl)piperidin-4-yl)acetamide]	1.9 nM
CC(=O)NC1CCN(CCCOc2cccc(-c3cccc(COc4cc(OCc5cncc(C#N)c5)c(CN5CCCCC5c5cn[nH]c5)cc4Cl)c3C)c2Cl)CC1 (stereo not shown) [Example 1059, N-(1-(3-((3′-((4-((2-(1H-Pyrazol-4-yl)piperidin-1-yl)methyl)-2-chloro-5-((5-cyano-pyridin-3-yl)methoxy)phenoxy)methyl)-2-chloro-2′-methyl-[1,1′-biphenyl]-3-yl)oxy)-propyl)piperidin-4-yl)acetamide]	3.6 nM

Stronger by IC50, values ahead:

IC50	SMILES
0.5 nM	CC(=O)NC1CCN(CCCOc2cccc(-c3cccc(COc4cc(OCc5cncc(C#N)c5)c(CN5CCCC(c6nnn[nH]6)C5)cc4Cl)c3C)c2C)CC1 (stereo not shown) [Example 1041, N-(1-(3-((3′-((4-((3-(1H-Tetrazol-5-yl)piperidin-1-yl)methyl)-2-chloro-5-((5-cyano-pyridin-3-yl)methoxy)phenoxy)methyl)-2,2′-dimethyl-[1,1′-biphenyl]-3-yl)oxy)propyl)-piperidin-4-yl)acetamide]
0.2 nM	CC(=O)NC1CCN(CCCOc2cccc(-c3cccc(COc4cc(OCc5cncc(C#N)c5)c(CN5CCC(c6nnn[nH]6)C5)cc4Cl)c3C)c2C)CC1 (stereo not shown) [Example 1042, N-(1-(3-((3′-((4-((3-(1H-Tetrazol-5-yl)pyrrolidin-1-yl)methyl)-2-chloro-5-((5-cyano-pyridin-3-yl)methoxy)phenoxy)methyl)-2,2′-dimethyl-[1,1′-biphenyl]-3-yl)oxy)propyl)-piperidin-4-yl)acetamide]
0.5 nM	CC(=O)NC1CCN(CCCOc2cccc(-c3cccc(COc4cc(OCc5cncc(C#N)c5)c(CN(C)Cc5nnn[nH]5)cc4Cl)c3C)c2C)CC1 [Example 1044, N-(1-(3-((3′-((4-((((1H-Tetrazol-5-yl)methyl)(methyl)amino)methyl)-2-chloro-5-((5-cyanopyridin-3-yl)methoxy)phenoxy)methyl)-2,2′-dimethyl-[1,1′-biphenyl]-3-yl)oxy)-propyl)piperidin-4-yl)acetamide]
0.5 nM	CC(=O)NC1CCN(CCCOc2cccc(-c3cccc(COc4cc(OCc5cncc(C#N)c5)c(CN5CCCCC5c5nnn[nH]5)cc4Cl)c3C)c2C)CC1 (stereo not shown) [Example 1048, N-(1-(3-((3′-((4-((2-(1H-Tetrazol-5-yl)piperidin-1-yl)methyl)-2-chloro-5-((5-cyano-pyridin-3-yl)methoxy)phenoxy)methyl)-2,2′-dimethyl-[1,1′-biphenyl]-3-yl)oxy)propyl)-piperidin-4-yl)acetamide]
0.7 nM	CC(=O)NC1CCN(CCCOc2cccc(-c3cccc(COc4cc(OCc5cncc(C#N)c5)c(CNCC(C)c5nnn[nH]5)cc4Cl)c3C)c2C)CC1 (stereo not shown) [Example 1050, N-(1-(3-((3′-((4-(((2-(1H-Tetrazol-5-yl)propyl)amino)methyl)-2-chloro-5-((5-cyano-pyridin-3-yl)methoxy)phenoxy)methyl)-2,2′-dimethyl-[1,1′-biphenyl]-3-yl)oxy)propyl)-piperidin-4-yl)acetamide]
1.2 nM	CC(=O)NC1CCN(CCCOc2cccc(-c3cccc(COc4cc(OCc5cncc(C#N)c5)c(CN5CCCCC5c5nnn[nH]5)cc4Cl)c3C)c2Cl)CC1 (stereo not shown) [Example 1055, N-(1-(3-((3′-((4-((2-(1H-Tetrazol-5-yl)piperidin-1-yl)methyl)-2-chloro-5-((5-cyano-pyridin-3-yl)methoxy)phenoxy)methyl)-2-chloro-2′-methyl-[1,1′-biphenyl]-3-yl)oxy)-propyl)-piperidin-4-yl)acetamide]
1.8 nM	CC(=O)NC1CCN(CCCOc2cccc(-c3cccc(COc4cc(OCc5cncc(C#N)c5)c(CNc5nnn[nH]5)cc4Cl)c3C)c2Cl)CC1 [Example 1056, N-(1-(3-((3′-((4-(((1H-Tetrazol-5-yl)amino)methyl)-2-chloro-5-((5-cyanopyridin-3-yl)-methoxy)phenoxy)methyl)-2-chloro-2′-methyl-[1,1′-biphenyl]-3-yl)oxy)propyl)piperidin-4-yl)acetamide]
0.7 nM	CC(=O)NC1CCN(CCCOc2cccc(-c3cccc(COc4cc(OCc5cncc(C#N)c5)c(CNCc5nnn[nH]5)cc4Cl)c3C)c2Cl)CC1 [Example 1057, N-(1-(3-((3′-((4-((((1H-Tetrazol-5-yl)methyl)amino)methyl)-2-chloro-5-((5-cyano-pyridin-3-yl)methoxy)phenoxy)methyl)-2-chloro-2′-methyl-[1,1′-biphenyl]-3-yl)oxy)-propyl)piperidin-4-yl)acetamide]
